In US9296776B2, “Substituted nucleoside derivatives with antiviral and antimicrobial properties” (Eastern Virginia Medical School, priority 2007, dated 2016):
Values after ≈ are worked out from the molar mass of the structure shown. Read-outs that look alike come from different tables or passages of the source.

How the values were obtained:
[1] = tested on: HIV-1 IIIB (cell-free virus); assay: microbe, parasite or virus in culture; assay type: cell-based; details: for IC50 Cell-Free Virus IIIB / IC50: Table 1; for IC50: read-out: IC50 Cell-Free Virus IIIB
H. ducreyi Strain HMC56 = assay: Antibacterial activity (MIC), strain HMC56; assay type: cell-based, Haemophilus ducreyi
H. ducreyi Strain HMC 62 = assay: Antibacterial activity (MIC), strain HMC 62; assay type: cell-based, Haemophilus ducreyi
[2] = tested on: Cell-associated HIV-1, SupT1 (IIIB); assay: Single-round infection assay, cell-associated virus SupT1 (IIIB); assay type: cell-based; details: for IC50 Cell-Associated Virus SupT1 (IIIB) / IC50: Table 1, 2 h incubation, wash, 48 h culture; for IC50: read-out: IC50 Cell-Associated Virus SupT1 (IIIB)
H. ducreyi Strain HMC 64 = assay: Antibacterial activity (MIC), strain HMC 64; assay type: cell-based, Haemophilus ducreyi
[3] = tested on: HIV-1 BaL (cell-free virus); assay: Single-round infection assay, cell-free virus BaL; assay type: cell-based; details: for IC50 Cell-Free Virus BaL / IC50: Table 1, 2 h incubation, wash, 48 h culture; for IC50: read-out: IC50 Cell-Free Virus BaL
[4] = Cytotoxicity (Tables 4, 6, 8)
[5] = tested on: HIV-1 clinical isolate R5 = 92TH014; assay: Antiviral activity against HIV-1 clinical isolate R5, RT endpoint; assay type: cell-based; details: Human immunodeficiency virus 1, Table 2, 6 h incubation then 6 days, read-out: IC50
[6] = tested on: Multidrug resistant virus 7324-1; assay: Antiviral activity against multidrug resistant HIV, RT endpoint; assay type: cell-based, HIV-1; details: Human immunodeficiency virus 1
CCRF-CEM cell line = assay type: cell-based, human
Procedure: Cells were incubated with 10 μM of DMSO, FAM, KPH-1.5 and KPH-1.6 for 1 h and then imaged using a light microscope (ZEISS Axioplan 2) equipped with transmitted light microscopy with a differential-interference contrast method and an Achroplan 40× objective. […] The results further confirm the higher cellular uptake of KPH-1.6, a fatty acyl derivative of FLT, in comparison to KPH-1.5 and FAM alone. Similar results were also observed with fluorescein-substituted derivative of 3TC.

[7] = tested on: Multidrug resistant virus 7324-1; assay: Antiviral activity against multidrug resistant HIV-1 clinical isolate, p24 level (ELISA); assay type: cell-based; details: Table 5, MDR = 7324-1, 6 h incubation then 6 days
[8] = tested on: HIV-1 clinical isolate R5 = 92TH014; assay: Antiviral activity against HIV-1 clinical isolate R5, p24 level (ELISA); assay type: cell-based; details: Table 5, 6 h incubation then 6 days
[9] = 2 h incubation, wash, 48 h culture
[10] = Table 8, 2 h incubation, wash, 48 h culture
[11] = Table 8, 2 h incubation, wash, 48 h culture, read-out: EC50 Cell-free HIV-1 (IIIB)
[12] = Human immunodeficiency virus 1, IIIB, 2 h incubation, wash, 48 h culture
[13] = [Haemophilus] ducreyi, read-out: MIC (minimum inhibitory concentration)
[14] = Human immunodeficiency virus 1, IIIB, SUP-T1
[15] = Human immunodeficiency virus 1, BAL

## CCCCCSCCCCCCCC(=O)OC[C@H]1O[C@@H](n2cc(C)c(=O)[nH]c2=O)C[C@@H]1N=[N+]=[N-] [3′-azido-2′,3′-dideoxy-5′-O-(9-thiatertradecanoyl)thymidine]
[1]; [9]
  IC50 Cell-Free Virus IIIB: 3.7 µg/mL (≈ 7.47 µM)
H. ducreyi Strain HMC56
  MIC (minimum inhibitory concentration): 250 µg/mL (≈ 504 µM)
H. ducreyi Strain HMC 62
  MIC (minimum inhibitory concentration): 250 µg/mL (≈ 504 µM)
[2]
  IC50 Cell-Associated Virus SupT1 (IIIB): 42.0 µg/mL (≈ 84.7 µM)
H. ducreyi Strain HMC 64
  MIC (minimum inhibitory concentration): 750 µg/mL (≈ 1510 µM)
[3]
  IC50 Cell-Free Virus BaL: 8.1 ( μg/mL

## CCCCCCCCCCCCCC(=O)OC[C@@H]1C=C[C@H](n2cc(C)c(=O)[nH]c2=O)O1 [5′-O-myristoyl-2′,3′-didehydro-2′,3′-dideoxythymidine]
[1]; [9]
  IC50 Cell-Free Virus IIIB: 34 µg/mL (≈ 78.2 µM)
[2]
  IC50 Cell-Associated Virus SupT1 (IIIB): >100 µg/mL
[3]
  IC50 Cell-Free Virus BaL: 5.4 µg/mL (≈ 12.4 µM)

## CCCCCCCCCCCCCC(=O)OCC(NC(C)=O)C(=O)NCCC(=O)NC(CCC(=O)OC[C@H]1O[C@@H](n2cc(C)c(=O)[nH]c2=O)C[C@@H]1F)C(=O)NCC(=O)O (stereo partly drawn) [KPH-94, Myristoylserine-FLT(glutamyl)glycine]
[1]; [10]
  EC50 Cell-free HIV-1 (IIIB): 9.3 µg/mL (≈ 11.1 µM)
[1]; [11]
  EC50: 11.1 µM
[4]
  CC50: > 100 µg/mL

## Cc1cn([C@H]2C[C@H](N=[N+]=[N-])[C@@H](CO)O2)c(=O)[nH]c1=O [3′-azido-2′,3′-dideoxythymidine (AZT), 3′-azido-2′,3′-dideoxythymidine, reference compound]
[1]; [12]
  IC50: 9.2 µg/mL (≈ 34.4 µM)
[1]; Human immunodeficiency virus 1, IIIB, Table 4, read-out: EC50 Cell-Free Virus IIIB
  EC50: 2.4 µg/mL
H. ducreyi Strain HMC56; [13]
  MIC: 125 µg/mL (≈ 468 µM)
H. ducreyi Strain HMC 62; [13]
  MIC: 750 µg/mL (≈ 2810 µM)
[2]; [14]
  IC50: > 100 µg/mL
[2]; Human immunodeficiency virus 1, IIIB, SUP-T1, Table 4
  EC50: > 100 µg/mL
In vitro
  CC50: > 100 µg/mL
[5]
  IC50: 0.02 µg/mL (≈ 0.0748 µM)
[6]
  IC50: 0.33 µg/mL (≈ 1.23 µM)
H. ducreyi Strain HMC 64; [13]
  MIC: 500 µg/mL (≈ 1870 µM)
[3]; [15]
  IC50: 0.8 µg/mL (≈ 2.99 µM)
[3]; Human immunodeficiency virus 1, BAL, Table 4
  EC50: 4.2 µg/mL (≈ 15.7 µM)

## CCCCCCCCCCCCCC(=O)Nc1ccn([C@H]2CS[C@@H](CO)O2)c(=O)n1 [N4-tetradecanoyl-2′,3′-dideoxy-3′-thiacytidine]
[1]; [12]
  IC50: 4.8 µg/mL (≈ 10.9 µM)
[2]; [14]
  IC50: 0.3 µg/mL (≈ 0.682 µM)
[3]; [15]
  IC50: 0.3 µg/mL (≈ 0.682 µM)

## 5(6)-carboxyfluorescein [FAM, reference compound]
CCRF-CEM cell line
  cell fluorescence by microscopy: no significant fluorescence

## CCCCCCCCCCCCC(OC)C(=O)OC[C@H]1O[C@@H](n2cc(C)c(=O)[nH]c2=O)C[C@@H]1F (stereo partly drawn) [3′-fluoro-2′,3′-dideoxy-5′-O-(2-methoxytetradecanoyl)thymidine]
[1]; [9]
  IC50 Cell-Free Virus IIIB: 0.5 µg/mL (≈ 1.03 µM)
[2]
  IC50 Cell-Associated Virus SupT1 (IIIB): >100 µg/mL
[3]
  IC50 Cell-Free Virus BaL: 0.1 µg/mL (≈ 0.206 µM)

## Sodium Cellulose Sulfate-Acetate-AZT (1.73%) [CS-Ac-AZT]
[7]
  IC50: 4.22 µg/mL
[1]; Table 4
  EC50 Cell-Free Virus IIIB: 2.5 µg/mL
[1]; based on CS ~2×10^6 Daltons
  potency against cell-free virus relative to AZT, in moles: 5 orders of magnitude
[2]; Table 4
  EC50 Cell-Associated Virus SupT1-IIIB: 5.6 µg/mL
[3]; Table 4
  EC50 Cell-Free Virus BaL: 8.1 µg/mL
[8]
  IC50: 3.52 µg/mL

## Cc1cn([C@H]2C[C@H](F)[C@@H](COC(=O)CCCCCCCCCCCBr)O2)c(=O)[nH]c1=O [3′-fluoro-2′,3′-dideoxy-5′-O-(12-bromododecanoyl)thymidine]
[1]; [9]
  IC50 Cell-Free Virus IIIB: 0.9 µg/mL (≈ 1.78 µM)
[2]
  IC50 Cell-Associated Virus SupT1 (IIIB): >100 µg/mL
[3]
  IC50 Cell-Free Virus BaL: <0.1 µg/mL

## CCCCCCCCCCCCCC(=O)OC[C@H]1O[C@@H](n2ccc(N)nc2=O)CS1 [5′-O-tetradecanoyl-2′,3′-dideoxy-3′-thiacytidine]
[1]; [12]
  IC50: 0.3 µg/mL (≈ 0.682 µM)
[2]; [14]
  IC50: 27.3 µg/mL (≈ 62.1 µM)
[3]; [15]
  IC50: 0.082 µg/mL (≈ 0.187 µM)

## Cc1cn([C@H]2C[C@H](F)[C@@H](CO)O2)c(=O)[nH]c1=O [3′-fluoro-2′,3′-deoxythymidine (FLT), 3′-fluoro-2′,3′-deoxythymidine, reference compound]
[1]; [9]
  IC50 Cell-Free Virus IIIB: 0.2 µg/mL (≈ 0.819 µM)
[1]; [10]
  EC50 Cell-free HIV-1 (IIIB): 0.2 µg/mL (≈ 0.819 µM)
[1]; [11]
  EC50: 0.8 µM
[2]
  IC50 Cell-Associated Virus SupT1 (IIIB): >100 µg/mL
[3]
  IC50 Cell-Free Virus BaL: 0.1 µg/mL (≈ 0.409 µM)
